This note sets out measurements from ChEMBL document CHEMBL1124023, “Analgesic dipeptide derivatives. 4. Linear and cyclic analogues of the analgesic compounds arginyl-2-[(o-nitrophenyl)sulfenyl]tryptophan and lysyl-2-[(o-nitrophenyl)sulfenyl]tryptophan” (1988).

Holding throughout (format): functional
Experiment [1] has as its system Mus musculus. Briefly: Analgesic activity (0.5 ug icv) tested after 30min, in mice tail-flick test. (Thermal pain tests record how soon the animal reacts.)
Experiment [2] has as its system Mus musculus. Briefly: Analgesic activity (0.5 ug icv) tested after 5min, in mice tail-flick test.
Experiment [3] deals with Mus musculus. Briefly: Analgesic activity (0.5 ug icv) tested after 60min, in mice tail-flick test.
Experiment [4] concerns Mus musculus. As to the kind of experiment: Analgesic activity (2.5 ug icv) tested after 5min, in mice tail-flick test.
The subject of experiment [5] is Mus musculus. Briefly: Analgesic activity (2.5 ug icv) tested after 30min, in mice tail-flick test.
The test system of experiment [6] is Mus musculus. As to the kind of experiment: Analgesic activity (5 ug icv) tested after 30min, in mice tail-flick test.
Experiment [7] has as its system Mus musculus. As to the kind of experiment: Analgesic activity (2.5 ug icv) tested after 60min, in mice tail-flick test.
Experiment [8] relates to Mus musculus. Briefly: Analgesic activity (5 ug icv) tested after 5min, in mice tail-flick test.
Experiment [9] has as its system Mus musculus. As to the kind of experiment: Analgesic activity (0.5 ug icv) tested after 5 min in mice tail-flick test.
Experiment [10] concerns Mus musculus. As to the kind of experiment: Analgesic activity (5 ug icv) tested after 60min, in mice tail-flick test.
Experiment [11] deals with Mus musculus. Briefly: Analgesic activity (0.5 ug icv) tested after 60 min in mice tail-flick test.
Experiment [12] relates to Mus musculus. Briefly: Analgesic activity (0.5 ug icv) tested after 30 min in mice tail-flick test.
Experiment [13] relates to Mus musculus. As to the kind of experiment: Analgesic activity (6.25 ug icv) tested after 30min, in mice tail-flick test.
Experiment [14] concerns Mus musculus. As to the kind of experiment: Analgesic activity (1 ug icv) tested after 5min, in mice tail-flick test.
For experiment [15], the system named is Mus musculus. As to the kind of experiment: Analgesic activity (3.125 ug icv) tested after 5min, in mice tail-flick test.
Experiment [16] has as its system Mus musculus. Briefly: Analgesic activity (3.125 ug icv) tested after 30min, in mice tail-flick test.
Experiment [17] relates to Mus musculus. Briefly: Analgesic activity (6.25 ug icv) tested after 60min, in mice tail-flick test.
Experiment [18] deals with Mus musculus. As to the kind of experiment: Analgesic activity (6.25 ug icv) tested after 5min, in mice tail-flick test.
Experiment [19] relates to Mus musculus. Briefly: Analgesic activity (3.125 ug icv) tested after 60min, in mice tail-flick test.
Experiment [20] deals with Mus musculus. As to the kind of experiment: Analgesic activity (1 ug icv) tested after 30min, in mice tail-flick test.
Experiment [21] deals with Mus musculus. As to the kind of experiment: Analgesic activity (1 ug icv) tested after 60min, in mice tail-flick test.
For experiment [22], the system named is Mus musculus. As to the kind of experiment: Analgesic activity (12.5 ug icv) tested after 30min, in mice tail-flick test.
In experiment [23] the test system is Mus musculus. Briefly: Analgesic activity (25 ug icv) tested after 5min, in mice tail-flick test.
The subject of experiment [24] is Mus musculus. Briefly: Analgesic activity (25 ug icv) tested after 30min, in mice tail-flick test.
For experiment [25], the system named is Mus musculus. As to the kind of experiment: Analgesic activity (12.5 ug icv) tested after 5min, in mice tail-flick test.
Experiment [26] deals with Mus musculus. As to the kind of experiment: Analgesic activity (25 ug icv) tested after 60min, in mice tail-flick test.
Experiment [27] relates to Mus musculus. Briefly: Analgesic activity (12.5 ug icv) tested after 60min, in mice tail-flick test.

SMILES strings stand for the structures.

As to `COC(=O)[C@H](Cc1cn(Sc2ccccc2[N+](=O)[O-])c2ccccc12)NC(=O)[C@@H](N)CCCN=C(N)N`, the “Change in reaction time” value in the experiment on Mus musculus [1] stood at 52%; in the experiment on Mus musculus [2], 120%; in the experiment on Mus musculus [3], 22%.

As for `COC(=O)[C@H](Cc1cn(Sc2ccccc2[N+](=O)[O-])c2ccccc12)NC(=O)[C@@H](N)CCCCN`, the “Change in reaction time” value with Mus musculus [1] worked out at 50%; in the experiment on Mus musculus [2] it was 98%; with Mus musculus [3] it was 20%.

Take `COC(=O)[C@H](CCCCN)NC(=O)[C@@H](N)Cc1cn(Sc2ccccc2[N+](=O)[O-])c2ccccc12`: the “Change in reaction time” value with Mus musculus [1] was 76%; in the experiment with Mus musculus [2], 138%; in the experiment on Mus musculus [3], 33%.

As for `COC(=O)[C@@H](CCCN=C(N)N)NC(=O)[C@@H](N)Cc1cn(Sc2ccccc2[N+](=O)[O-])c2ccccc12.Cl`, the “Change in reaction time” value in the experiment on Mus musculus [1] is recorded as 23%; in the experiment on Mus musculus [4], 20%; with Mus musculus [5], 18%; with Mus musculus [6], 88%; in the experiment with Mus musculus [7] it was 9%; with Mus musculus [3] it was 9%. Moreover, the “Change in reaction time” value is recorded as 97% in the experiment with Mus musculus [8], 18% in the experiment on Mus musculus [9] and 30% in the experiment with Mus musculus [10].

In the case of `COC(=O)[C@H](CCCN=C(N)N)NC(=O)[C@@H](N)Cc1cn(Sc2ccccc2[N+](=O)[O-])c2ccccc12.Cl`, the figures for the “Change in reaction time” value in the experiment with Mus musculus [11], with Mus musculus [9] and with Mus musculus [12] were 20%, 113% and 63%, respectively.

On to `COC(=O)[C@H](CCCN=C(N)N)NC(=O)[C@H](N)Cc1cn(Sc2ccccc2[N+](=O)[O-])c2ccccc12.Cl`, for which the “Change in reaction time” value in the experiment on Mus musculus [1] is on record as 26%; with Mus musculus [4] it was 125%; in the experiment with Mus musculus [5], 41%; in the experiment on Mus musculus [2] it was 30%; in the experiment on Mus musculus [7], 20%; with Mus musculus [3] it was 23%.

With `COC(=O)[C@@H](CCCN=C(N)N)NC(=O)[C@H](N)Cc1cn(Sc2ccccc2[N+](=O)[O-])c2ccccc12.Cl`, the “Change in reaction time” value in the experiment with Mus musculus [1] is on record as 10%; in the experiment with Mus musculus [4], 16%; with Mus musculus [5], 3%; with Mus musculus [6], 42%; in the experiment with Mus musculus [2], 6%; with Mus musculus [7], -2%. Further, the results for the “Change in reaction time” value with Mus musculus [3], with Mus musculus [8] and with Mus musculus [10] were -2%, 34% and 29%, respectively.

Regarding `NC(N)=NCCC[C@@H](NC(=O)[C@H](N)Cc1ccc(O)cc1)C(=O)O`, the “Change in reaction time” value is listed as 68% with Mus musculus [13]; 10% with Mus musculus [14]; 79% in the experiment on Mus musculus [15]; 34% in the experiment on Mus musculus [16]; 10% with Mus musculus [17]; 102% in the experiment on Mus musculus [18]. For the same compound, the “Change in reaction time” value in the experiment with Mus musculus [19] is listed as 15%; with Mus musculus [20], 5%; in the experiment with Mus musculus [21], -2%.

As for `Cl.N=C(N)NCCCC1NC(=O)[C@H](Cc2cn(Sc3ccccc3[N+](=O)[O-])c3ccccc23)NC1=O` (stereo in doubt), the “Change in reaction time” value in the experiment on Mus musculus [1] is 23%; in the experiment on Mus musculus [2] it was 35%; in the experiment on Mus musculus [3] it was 15%.

Take `NC(N)=NCCC[C@H](NC(=O)[C@@H](N)Cc1ccc(O)cc1)C(=O)O` [KYOTORPHIN]: the “Change in reaction time” value with Mus musculus [22] turned out to be 1%; with Mus musculus [23], 98%; in the experiment on Mus musculus [24], 31%; in the experiment on Mus musculus [25], 18%; in the experiment on Mus musculus [26] it was 10%; in the experiment with Mus musculus [27], 6%.
